One block for each compound: values may come before it.
Legend:
[1] = system: human hair follicle dermal papilla cells (hFDPC); test: Human follicle dermal papilla cell (hFDPC) proliferation, cell viability assay; type: cell-based; conditions: hFDPCs from donors 25-83 years old; vs DMSO control
Procedure: The ability of a compound or salt of the present disclosure to increase proliferation of human hair follicle dermal papilla cells (hFDPC) was tested using a cell viability assay, such as the Promega CellTiter-Glo® Luminescent Cell Viability Assay, MTT cell proliferation assay (ATCC® 30-1010K), or manual cell counting. The compound or salt was added at various concentrations spanning at least a 2-log range. hFDPCs were derived from multiple donors ranging from 25-83 years old and cultured on tissue-treated plastic using predefined growth media supplemented with 6-bromoindirubin-3′-Oxime (BIO), recombinant bone morphogenetic protein-2 (BMP-2), and basic fibroblast growth factor (FGFβ), a combination previously found to preserve in situ dermal papilla gene signatures. […] In TABLE 12, A represents less than 20% increased proliferation of hFDPCs, B represents a 20-40% increase, and C represents more than a 40% increase in the proliferation of hFDPCs.

[2] = biological target: T1, cytochrome P450 3A4 (CYP3A4) (Homo sapiens, UniProt P08684); test: P450-Glo CYP3A4 Assay and Screening System; type: in vitro ADME; conditions: 50 or 5 μM
T1 construct: purchased Promega
T1 sequence (P08684 whole entry): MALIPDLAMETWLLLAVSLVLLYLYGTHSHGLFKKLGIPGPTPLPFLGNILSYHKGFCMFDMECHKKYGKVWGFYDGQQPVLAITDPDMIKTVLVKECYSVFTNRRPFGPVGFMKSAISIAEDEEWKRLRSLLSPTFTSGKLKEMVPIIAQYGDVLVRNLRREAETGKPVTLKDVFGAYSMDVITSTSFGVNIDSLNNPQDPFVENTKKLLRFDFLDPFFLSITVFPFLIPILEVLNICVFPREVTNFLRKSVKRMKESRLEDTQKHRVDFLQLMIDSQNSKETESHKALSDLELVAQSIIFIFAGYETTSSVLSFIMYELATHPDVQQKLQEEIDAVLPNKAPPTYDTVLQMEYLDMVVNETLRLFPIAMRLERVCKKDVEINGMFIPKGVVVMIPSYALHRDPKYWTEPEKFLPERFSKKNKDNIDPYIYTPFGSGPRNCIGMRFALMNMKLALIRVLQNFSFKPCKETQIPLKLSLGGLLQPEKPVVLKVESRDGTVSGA
Procedure: A P450-Glo™ CYP3A4 Assay and Screening System (Promega) was employed to assess the inhibitory potential of the example compounds against CYP3A4 at concentrations of either 50 or 5 μM. […] Vehicle represents 0.1% DMSO and […] is a known cytochrome P450 3A4 inhibitor .

[3] = system: primary human follicle dermal papilla cells (hFDPCs); test: ROS-Glo assay, intracellular reactive oxygen species; type: cell-based; conditions: 50 or 5 μM
Procedure: A ROS-Glo™ assay (Promega) was employed to assess the production of intracellular reactive oxygen species (ROS) for the example compounds at concentrations of either 50 or 5 μM. […] Vehicle represents 0.1% DMSO and DMNQ represents 2,3-dimethoxy-1,4-naphthalenedione, a known ROS-inducer.

[4] = Structural stability in solvent mixtures at elevated temperature, LC-UV; type: physicochemical; conditions: for Purity (LC-UV) after stirring: 80° C., 2 hrs
Procedure: Additionally, the ability of a compound or salt of the present disclosure was evaluated at room temperature as well as at 60° C. for varying periods of time (FIG. 1B). The structural stability of compound I-1 was further explored by stirring this compound in 2 different solvent mixtures at elevated temperatures for 2 hours. (TABLE 13). The samples were analyzed by LC-UV after stirring for 2 hrs (FIG. 2).

[5] = Stability on open-air storage, LCMS/HPLC-UV; type: physicochemical
Procedure: A sample was analyzed for stability using LCMS. In both cases, the peak at 1.25 min was determined to be product I-1, while the impurity at 0.66 min was identified as the hydrolysis product 3-B04, as referenced in Scheme 9b. After analysis, the sample was allowed to stand in open air overnight. […] The purity of the compound in FIG. 7B was analyzed to be 95.3% (254 nm), and in FIG. 7D to be 90.61% (254 nm) after standing overnight in air. […] The compound gradually decomposed into compound 3-B04 and propane sulfonic acid.

[6] = Stability in DMI solution, LCMS/HPLC-UV; type: physicochemical
Procedure: A sample containing compound I-1 was prepared in 1,3-Dimethyl-2-imidazolidinone (DMI), sealed, and stored at room temperature for 7 days. Another sample containing compound I-1 was prepared in DMI and left open for 8 days. The purity of both samples was assessed using LCMS. […] The purity in FIG. 8B was determined to be 92.9%, and the purity in FIG. 8D was also found to be 92.9%.

[7] = Thermal degradation on distillation, NMR; type: physicochemical; conditions: distillation at 185° C. (after 30 minutes at 160° C.)
Procedure: Thermal degradation of compound I-1 was evaluated at 160° C. and 185° C. Pure compound I-1 (1.2 g), in the form of a brown oil, was subjected to distillation for 30 minutes at 160° C. When no product was observed, distillation was attempted at 185° C., albeit unsuccessfully.

[8] = Stability in example compositions, HPLC-UV; type: physicochemical; conditions: compositions of TABLE 2-TABLE 11, 8 months at room temperature
Source text: Example of composition (TABLE 2-TABLE 11) preserves the structure and inhibits the hydrolysis of compound I-1, even after storage of 8 months at room temperature.

SMILES: CCSc1nc(-c2ccco2)nn1S(C)(=O)=O [I-2]
Increase Proliferation of hFDPCs (%) [1]: C (C represents more than a 40% increase in the proliferation of hFDPCs)

SMILES: COCCSc1nc(-c2ccco2)nn1S(C)(=O)=O [I-3]
Increase Proliferation of hFDPCs (%) [1]: C (C represents more than a 40% increase in the proliferation of hFDPCs)

Inhibition of CYP3A4 activity [2]: potent inhibitory potential | Production of intracellular ROS (oxidative stress) [3]: Elevated levels of ROS
SMILES: CCCCCS(=O)(=O)n1nc(-c2ccco2)nc1SCCOCCOC [I-5]
Increase Proliferation of hFDPCs (%) [1]: C (C represents more than a 40% increase in the proliferation of hFDPCs)

SMILES: CCCCCS(=O)(=O)n1nc(-c2ccco2)nc1SCC [I-6]
Increase Proliferation of hFDPCs (%) [1]: B (B represents a 20-40% increase)

SMILES: CSc1nc(-c2ccco2)nn1S(C)(=O)=O [VII-3]
Increase Proliferation of hFDPCs (%) [1]: C (C represents more than a 40% increase in the proliferation of hFDPCs)

SMILES: CCCS(=O)(=O)n1nc(-c2ccco2)nc1SC [I-4]
Increase Proliferation of hFDPCs (%) [1]: B (B represents a 20-40% increase)

Purity (LC-UV) after stirring ([4]; 0.1% (v/v) HCOOH in H2O/0.1% (v/v) HCOOH in MeCN 1:1): 95% | Purity (LC-UV) after stirring ([4]; EtOAc/Heptane 1:1): >99% | Degradation in acidic conditions ([4]; acidic conditions, 2 hrs elevated temperature): minor degradation | Structural stability in organic solvents ([4]; organic solvents used for straight phase column chromatography, 2 hrs elevated temperature): very stable | Purity (254 nm) after standing overnight in air ([5]; 24 hours open-air exposure, room temperature): 90.61% | Purity (254 nm), freshly synthesized material post-workup ([5]; before air exposure (baseline)): 95.3% | Purity (254 nm) in DMI, left open ([6]; 1,3-Dimethyl-2-imidazolidinone (DMI), open air, 8 days): 92.9% | Purity (254 nm) in DMI, sealed ([6]; 1,3-Dimethyl-2-imidazolidinone (DMI), sealed, room temperature, 7 days): 92.9% | Stability in DMI ([6]; even when solution exposed to air): appeared to be stable | Thermal degradation [7]: slightly decomposing | Hydrolysis in example composition on storage [8]: minimal hydrolysis
SMILES: CCCS(=O)(=O)n1nc(-c2ccco2)nc1SCCOCCOC [I-1]
Increase Proliferation of hFDPCs (%) [1]: C (C represents more than a 40% increase in the proliferation of hFDPCs) | Stability on storage in open air ([5]; room temperature, decomposes into 3-B04 and propane sulfonic acid): hydrolyzed upon storage in open air at room temperature

From US20240208949A1, “COMPOSITIONS, FORMULATIONS, AND METHODS FOR HAIR TREATMENT” (Oddity Labs, LLC, priority 2022, published 2024)
